The values that follow come from PubChem BioAssay (NCI).

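48-hour exposure; five concentrations; linearly interpolated endpoints. GI50 marks 50% less growth. TGI marks complete inhibition of growth.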

Among the test systems are K-562 leukemia; U251 CNS; CCRF-CEM leukemia; HT29 colon; SN12C renal; SK-MEL-2 melanoma; OVCAR-3 ovarian; SW-620 colon; NCI-H522 lung; MDA-MB-231 breast.
Common to all, as to test: growth of human tumour cells (NCI), 48 h

Consider `COc1ccc(Cn2c(Br)c3c(c2Br)-c2nc(N)sc2CC3)cc1`, for which the GI50 is 2.43 µM in the experiment on K-562 leukemia; 5.15 µM with U251 CNS; 0.472 µM in the experiment on CCRF-CEM leukemia; 4.14 µM in the experiment on HT29 colon; 5.47 µM in the experiment with SN12C renal; 5.56 µM with SK-MEL-2 melanoma. Also, the GI50 in the experiment with OVCAR-3 ovarian is 4.1 µM; with SW-620 colon, 3.1 µM; with NCI-H522 lung, 1.59 µM; in the experiment on MDA-MB-231 breast, 5.97 µM. Moreover, the TGI in the experiment with K-562 leukemia was found to be 57.9 µM; in the experiment with U251 CNS, 19 µM; with CCRF-CEM leukemia, 15.1 µM; with HT29 colon it was 13.2 µM; in the experiment with SN12C renal it was 21 µM; in the experiment with SK-MEL-2 melanoma, 19.9 µM. Also, the TGI with OVCAR-3 ovarian came out at 15.5 µM; in the experiment with SW-620 colon, 11.4 µM; with NCI-H522 lung it was 3.04 µM; in the experiment on MDA-MB-231 breast it was 26.8 µM.

As to `O=C(NC1CCCCC1)NS(=O)(=O)c1ccc(N2N=C3c4ccccc4CC3C2c2ccc(Cl)cc2)cc1` (stereo not given), the GI50 was 6.71 µM in the experiment on K-562 leukemia; 10.1 µM with U251 CNS; 3.85 µM with CCRF-CEM leukemia; 32.5 µM in the experiment with HT29 colon; 16.8 µM in the experiment on SN12C renal; 24.4 µM in the experiment on SK-MEL-2 melanoma. In addition, the GI50 with OVCAR-3 ovarian was 18.4 µM; in the experiment with SW-620 colon it was 10.3 µM; in the experiment with NCI-H522 lung it was 9.43 µM; with MDA-MB-231 breast, 12.8 µM. The TGI with K-562 leukemia was 22.4 µM; in the experiment on U251 CNS it was 21.7 µM; with CCRF-CEM leukemia, 23.8 µM; with HT29 colon it was more than 100 µM; in the experiment with SN12C renal, 32.6 µM; in the experiment with SK-MEL-2 melanoma, 80.4 µM. Further, the TGI in the experiment on OVCAR-3 ovarian was 42 µM; in the experiment with SW-620 colon, 24.3 µM; in the experiment on NCI-H522 lung, 30.9 µM; in the experiment on MDA-MB-231 breast it was 31.2 µM.

Turning to `CC(C)[C@@H]1NC(=O)[C@]2(C)CSC(=N2)c2ccnc(c2)CNC(=O)C[C@@H](/C=C/CCS)OC1=O`, the GI50 with K-562 leukemia is 0.637 µM; with U251 CNS, 0.107 µM; with CCRF-CEM leukemia it was 0.574 µM; with HT29 colon, 0.242 µM; in the experiment on SN12C renal, 0.711 µM; with SK-MEL-2 melanoma, 0.0842 µM. Also, the GI50 in the experiment with OVCAR-3 ovarian was 0.833 µM; in the experiment on SW-620 colon, 0.448 µM; in the experiment on NCI-H522 lung it was 0.249 µM; with MDA-MB-231 breast, 0.472 µM. For the same compound, the TGI in the experiment on K-562 leukemia was more than 100 µM; in the experiment on U251 CNS it was 0.73 µM; in the experiment on CCRF-CEM leukemia, more than 100 µM; in the experiment with HT29 colon it was 1.57 µM; in the experiment with SN12C renal it was more than 100 µM; in the experiment with SK-MEL-2 melanoma, 0.516 µM. The TGI in the experiment with OVCAR-3 ovarian is 6.87 µM; in the experiment on SW-620 colon it was 7.65 µM; in the experiment with NCI-H522 lung it was 5.14 µM; with MDA-MB-231 breast, more than 100 µM.

As to `O=[N+]([O-])c1cc([N+](=O)[O-])c(C(F)(F)F)cc1NN=C(c1ccc(O)cc1)c1ccc(O)cc1`, the GI50 in the experiment with K-562 leukemia was 2.42 µM; in the experiment with U251 CNS, 2.92 µM; in the experiment with CCRF-CEM leukemia, 3.71 µM; with HT29 colon, 3.33 µM; with SN12C renal it was 3.3 µM; in the experiment on SK-MEL-2 melanoma it was 2.56 µM. In addition, the GI50 was 2.42 µM in the experiment with OVCAR-3 ovarian, 3.44 µM in the experiment on SW-620 colon, 3.82 µM with NCI-H522 lung and 3.11 µM in the experiment on MDA-MB-231 breast. In addition, the TGI amounted to 15.7 µM with K-562 leukemia; 11.7 µM with U251 CNS; 14.4 µM in the experiment with CCRF-CEM leukemia; 12.1 µM in the experiment on HT29 colon; 13.4 µM in the experiment on SN12C renal; 5.99 µM in the experiment on SK-MEL-2 melanoma. The TGI with OVCAR-3 ovarian turned out to be 6.11 µM; in the experiment with SW-620 colon, 12.3 µM; in the experiment with NCI-H522 lung it was 39.7 µM; with MDA-MB-231 breast it was 9.41 µM.

Turning to `CN1CCN(c2ccc(Nc3ncc(Cl)c(NC[C@@H]4CCCO4)n3)cc2)CC1`, the GI50 is 2.94 µM in the experiment with K-562 leukemia; 2 µM in the experiment on U251 CNS; 0.466 µM in the experiment with CCRF-CEM leukemia; 1.72 µM in the experiment with HT29 colon; 1.13 µM in the experiment on SN12C renal; 2.59 µM in the experiment with SK-MEL-2 melanoma. The GI50 in the experiment with OVCAR-3 ovarian was 2.53 µM; in the experiment on SW-620 colon, 0.538 µM; in the experiment on NCI-H522 lung, 1.52 µM; in the experiment on MDA-MB-231 breast it was 1.62 µM. Further, the TGI was more than 100 µM with K-562 leukemia; 49.1 µM in the experiment with U251 CNS; 9.04 µM in the experiment on CCRF-CEM leukemia; more than 100 µM with HT29 colon; more than 100 µM in the experiment with SN12C renal; 7.94 µM with SK-MEL-2 melanoma. Besides, the TGI was more than 100 µM in the experiment with OVCAR-3 ovarian, more than 100 µM in the experiment on SW-620 colon, 10.9 µM in the experiment with NCI-H522 lung and 8.29 µM in the experiment with MDA-MB-231 breast.

For the compound `CC(=O)OCc1ccc2c(c1)C(O)NC(=O)O2` (stereo not given), the TGI in the experiment with K-562 leukemia was more than 100 µM; in the experiment with U251 CNS, more than 100 µM; with CCRF-CEM leukemia it was 40.4 µM; with HT29 colon it was more than 100 µM; with SN12C renal, more than 100 µM; with SK-MEL-2 melanoma, more than 100 µM. Further, the TGI in the experiment on OVCAR-3 ovarian is 59.4 µM; in the experiment with SW-620 colon it was more than 100 µM; with NCI-H522 lung it was more than 100 µM; with MDA-MB-231 breast, more than 100 µM.

Consider `CC(=C(c1ccc(OCCN2CCCCC2)cc1)c1ccc(OCCN2CCCCC2)cc1)c1ccc(Cl)cc1`, for which the GI50 in the experiment with K-562 leukemia is 0.0775 µM; in the experiment on U251 CNS it was 0.387 µM; in the experiment on CCRF-CEM leukemia, 0.493 µM; in the experiment with HT29 colon, 0.35 µM; with SN12C renal it was 0.414 µM; in the experiment with SK-MEL-2 melanoma it was 0.459 µM. In addition, the GI50 in the experiment with OVCAR-3 ovarian was 0.415 µM; in the experiment on SW-620 colon, 0.408 µM; in the experiment with NCI-H522 lung, 0.411 µM; with MDA-MB-231 breast, 0.425 µM. Moreover, the TGI in the experiment with K-562 leukemia was determined as 0.362 µM; with U251 CNS, 0.747 µM; in the experiment with CCRF-CEM leukemia, 1.56 µM; in the experiment on HT29 colon, 0.779 µM; in the experiment with SN12C renal, 0.785 µM; with SK-MEL-2 melanoma it was 0.909 µM. Further, the TGI with OVCAR-3 ovarian was 0.783 µM; with SW-620 colon it was 0.794 µM; in the experiment with NCI-H522 lung, 0.872 µM; in the experiment with MDA-MB-231 breast, 0.806 µM.

Turning to `CC(=O)OC1(C)N=NC2(CCCCC2)O1` (stereo not given), the TGI in the experiment with K-562 leukemia, in the experiment with U251 CNS, in the experiment with CCRF-CEM leukemia, in the experiment on HT29 colon, in the experiment on SN12C renal and with SK-MEL-2 melanoma was more than 100 µM in each case. Further, the TGI with OVCAR-3 ovarian, in the experiment with SW-620 colon, with NCI-H522 lung and in the experiment on MDA-MB-231 breast was more than 100 µM in each case.
